In brackets after ≈: the same amount, converted by molar mass.
What was measured:
Staphylococcus aureus [1] = test: Antibacterial activity against methicillin-resistant Staphylococcus aureus XJ 75302 after 20 hrs by CLSI broth microdilution method; format: functional
[2] = Cytotoxicity against human PANC1 cells after 48 hrs by MTT assay; format: functional, cell-based; settings: PANC-1, 48 h
[3] = Cytotoxicity against human HuTu 80 cells after 48 hrs by MTT assay; format: functional, cell-based; settings: HuTu80, 48 h
Staphylococcus aureus [4] = test: Antibacterial activity against methicillin-resistant Staphylococcus aureus Mu50 ATCC 700699 after 20 hrs by CLSI broth microdilution method; format: functional
Staphylococcus aureus [5] = test: Antibacterial activity against methicillin-resistant Staphylococcus aureus USA 300 LAC after 20 hrs by CLSI broth microdilution method; format: functional
4T1 [6] = test: Cytotoxicity against mouse 4T1 cells after 48 hrs by MTT assay; format: functional, cell-based; settings: 4T1, 48 h
Staphylococcus aureus [7] = test: Antibacterial activity against Staphylococcus aureus ATCC 29213 after 20 hrs by CLSI broth microdilution method; format: functional
4T1 [8] = test: Induction of apoptosis in mouse 4T1 cells assessed as late apoptotic cells at 5 ug/ml after 48 hrs by Annexin V/Alexa Fuor 488/PI-staining based flow cytometric analysis (Rvb=3.5%); format: functional
4T1 [9] = test: Induction of apoptosis in mouse 4T1 cells assessed as necrotic cells at 5 ug/ml after 48 hrs by Annexin V/Alexa Fuor 488/PI-staining based flow cytometric analysis (Rvb=0.5%); format: functional
4T1 [10] = test: Induction of apoptosis in mouse 4T1 cells assessed as increase in early and late apoptotic cells at 5 ug/ml after 48 hrs by Annexin V/Alexa Fuor 488/PI-staining based flow cytometric analysis relative to vehicle control; format: functional
4T1 [11] = test: Induction of apoptosis in mouse 4T1 cells assessed as viable cells at 5 ug/ml after 48 hrs by Annexin V/Alexa Fuor 488/PI-staining based flow cytometric analysis (Rvb= 91.7%); format: functional; settings: 4T1, 48 h, read-out: Activity
4T1 [12] = test: Induction of apoptosis in mouse 4T1 cells assessed as early apoptotic cells at 5 ug/ml after 48 hrs by Annexin V/Alexa Fuor 488/PI-staining based flow cytometric analysis (Rvb=4.4%); format: functional

Row | Compound | MIC (Staphylococcus aureus [1]; XJ 75302, 20 h) | IC50 [2] | IC90 [2] | IC50 [3] | IC90 [3] | MIC (Staphylococcus aureus [4]; Mu50 ATCC 700699, 20 h) | MIC (Staphylococcus aureus [5]) | IC50 (4T1 [6]) | IC90 (4T1 [6]) | MIC (Staphylococcus aureus [7]; ATCC 29213, 20 h) | Activity (4T1 [8]) | Activity (4T1 [9]) | fold change (FC) (4T1 [10]) | viability at 5 µg/mL (4T1 [11]) | Activity (4T1 [12]) | MIC (Staphylococcus aureus [1]) | MIC (Staphylococcus aureus [4]) | MIC (Staphylococcus aureus [7])
1 | N#CC1=C(N)Oc2c(c(=O)oc3ccccc23)C1c1ccc(C#N)cc1 (stereo not given) | > 256 µg/mL | 150 µg/mL (≈ 439 µM) | 286 µg/mL (≈ 838 µM) | 121 µg/mL (≈ 355 µM) | 221 µg/mL (≈ 648 µM) | > 256 µg/mL | > 256 µg/mL | 115 µg/mL (≈ 336 µM) | 208 µg/mL (≈ 609 µM) | > 256 µg/mL |  |  |  |  |  |  |  | 
2 | CC1(C)CC(=O)C2=C(C1)OC(N)=C(C#N)C2c1cccc(C(F)(F)F)c1 (stereo not given) | > 256 µg/mL | 248 µg/mL (≈ 685 µM) | 503 µg/mL (≈ 1390 µM) | 388 µg/mL (≈ 1070 µM) | 788 µg/mL (≈ 2170 µM) | > 256 µg/mL | > 256 µg/mL | 287 µg/mL (≈ 791 µM) | 575 µg/mL (≈ 1590 µM) | > 256 µg/mL |  |  |  |  |  |  |  | 
3 | N#CC1=C(N)OC2=C(C(=O)CCC2)C1c1cccc(Br)c1 (stereo not given) | > 256 µg/mL | 368 µg/mL (≈ 1070 µM) | 704 µg/mL (≈ 2040 µM) | 281 µg/mL (≈ 814 µM) | 543 µg/mL (≈ 1570 µM) | > 256 µg/mL | > 256 µg/mL | 157 µg/mL (≈ 455 µM) | 287 µg/mL (≈ 830 µM) | > 256 µg/mL |  |  |  |  |  |  |  | 
4 | CC1(C)CC(=O)C2=C(C1)OC(N)=C(C#N)C2c1ccccc1C#N (stereo not given) | > 256 µg/mL | 242 µg/mL (≈ 757 µM) | 512 µg/mL (≈ 1600 µM) | 414 µg/mL (≈ 1300 µM) | 814 µg/mL (≈ 2550 µM) | > 256 µg/mL | > 256 µg/mL | 249 µg/mL (≈ 778 µM) | 503 µg/mL (≈ 1580 µM) | > 256 µg/mL |  |  |  |  |  |  |  | 
5 | N#CC1=C(N)OC2=C(C(=O)CCC2)C1c1cc(F)cc(F)c1 (stereo not given) | > 256 µg/mL | 319 µg/mL (≈ 1060 µM) | 624 µg/mL (≈ 2060 µM) | 446 µg/mL (≈ 1480 µM) | 824 µg/mL (≈ 2730 µM) | > 256 µg/mL | > 256 µg/mL | 164 µg/mL (≈ 543 µM) | 308 µg/mL (≈ 1020 µM) | > 256 µg/mL |  |  |  |  |  |  |  | 
6 | O=c1oc2ccccc2c(O)c1C(c1ccc(F)c(Cl)c1)c1c(O)c2ccccc2oc1=O | 16 µg/mL (≈ 34.4 µM) | 30.8 µg/mL (≈ 66.2 µM) | 55.8 µg/mL (≈ 120 µM) | 32.6 µg/mL (≈ 70.1 µM) | 64.5 µg/mL (≈ 139 µM) | 8 µg/mL (≈ 17.2 µM) | 8 µg/mL (≈ 17.2 µM) | 22.9 µg/mL (≈ 49.3 µM) | 43.2 µg/mL (≈ 92.9 µM) | 16 µg/mL (≈ 34.4 µM) |  |  |  |  |  |  |  | 
7 | COc1cc(C2C(C#N)=C(N)OC3=C2C(=O)CCC3)ccc1O (stereo not given) | > 256 µg/mL | 232 µg/mL (≈ 744 µM) | 462 µg/mL (≈ 1480 µM) | 208 µg/mL (≈ 666 µM) | 399 µg/mL (≈ 1280 µM) | > 256 µg/mL | > 256 µg/mL | 114 µg/mL (≈ 364 µM) | 219 µg/mL (≈ 700 µM) | > 256 µg/mL |  |  |  |  |  |  |  | 
8 | CC1(C)CC(=O)C2=C(C1)OC(N)=C(C#N)C2c1cccc(Oc2ccccc2)c1 (stereo not given) | > 256 µg/mL | 383 µg/mL (≈ 991 µM) | 759 µg/mL (≈ 1960 µM) | 900 µg/mL (≈ 2330 µM) | 1700 µg/mL (≈ 4400 µM) | > 256 µg/mL | > 256 µg/mL | 481 µg/mL (≈ 1240 µM) | 927 µg/mL (≈ 2400 µM) | > 256 µg/mL |  |  |  |  |  |  |  | 
9 | N#CC1=C(N)Oc2c(c(=O)oc3ccccc23)C1c1ccc(Br)cc1 (stereo not given) | > 256 µg/mL | 176 µg/mL (≈ 446 µM) | 328 µg/mL (≈ 829 µM) | 140 µg/mL (≈ 355 µM) | 274 µg/mL (≈ 692 µM) | > 256 µg/mL | > 256 µg/mL | 96.2 µg/mL (≈ 243 µM) | 172 µg/mL (≈ 435 µM) | > 256 µg/mL |  |  |  |  |  |  |  | 
10 | CC(C)(C)c1ccc(C(c2c(O)c3ccccc3oc2=O)c2c(O)c3ccccc3oc2=O)cc1 | 16 µg/mL (≈ 34.2 µM) | 28 µg/mL (≈ 59.7 µM) | 53.2 µg/mL (≈ 113 µM) | 31.1 µg/mL (≈ 66.5 µM) | 55.5 µg/mL (≈ 119 µM) | 16 µg/mL (≈ 34.2 µM) | 32 µg/mL (≈ 68.3 µM) | 24.6 µg/mL (≈ 52.4 µM) | 47.1 µg/mL (≈ 101 µM) | 16 µg/mL (≈ 34.2 µM) |  |  |  |  |  |  |  | 
11 | COc1ccc(C2C(C#N)=C(N)Oc3c2c(=O)oc2ccccc32)cc1OC (stereo not given) | > 256 µg/mL | 168 µg/mL (≈ 448 µM) | 310 µg/mL (≈ 825 µM) | 132 µg/mL (≈ 352 µM) | 232 µg/mL (≈ 618 µM) | > 256 µg/mL | > 256 µg/mL | 107 µg/mL (≈ 283 µM) | 194 µg/mL (≈ 516 µM) | > 256 µg/mL |  |  |  |  |  |  |  | 
12 | O=c1oc2ccccc2c(O)c1C(c1ccc(Br)cc1)c1c(O)c2ccccc2oc1=O | 16 µg/mL (≈ 32.6 µM) | 31.8 µg/mL (≈ 64.7 µM) | 61.4 µg/mL (≈ 125 µM) | 29.7 µg/mL (≈ 60.5 µM) | 52.6 µg/mL (≈ 107 µM) | 8 µg/mL (≈ 16.3 µM) | 8 µg/mL (≈ 16.3 µM) | 19.3 µg/mL (≈ 39.2 µM) | 36.7 µg/mL (≈ 74.7 µM) | 16 µg/mL (≈ 32.6 µM) | 25.5% | 0.3% | >8 | 30.2% | 44% |  |  | 
13 | GENTAMICIN |  |  |  |  |  |  | 0.25 µg/mL |  |  |  |  |  |  |  |  | 64 µg/mL | 32 µg/mL | 0.12 µg/mL
14 | CO/N=C(\C(=O)N[C@@H]1C(=O)N2C(C(=O)O)=C(CSc3nc(=O)c(O)nn3C)CS[C@H]12)c1csc(N)n1 [CEFTRIAXONE] | > 256 µg/mL |  |  |  |  | 256 µg/mL (≈ 462 µM) | 32 µg/mL (≈ 57.7 µM) |  |  | 2 µg/mL (≈ 3.61 µM) |  |  |  |  |  |  |  | 
15 | CC(C)(O/N=C(\C(=O)N[C@@H]1C(=O)N2C(C(=O)[O-])=C(C[n+]3ccccc3)CS[C@H]12)c1csc(N)n1)C(=O)O [CEFTAZIDIME] | > 256 µg/mL |  |  |  |  | 256 µg/mL (≈ 468 µM) | 64 µg/mL (≈ 117 µM) |  |  | > 8 µg/mL |  |  |  |  |  |  |  | 
16 | CCN1CCN(C(=O)N[C@@H](C(=O)N[C@@H]2C(=O)N3[C@@H]2SC(C)(C)[C@@H]3C(=O)O)c2ccccc2)C(=O)C1=O [PIPERACILLIN] | > 128 µg/mL |  |  |  |  | > 128 µg/mL | 8 µg/mL (≈ 15.5 µM) |  |  | 2 µg/mL (≈ 3.86 µM) |  |  |  |  |  |  |  | 
17 | C[C@H]1COc2c(N3CCN(C)CC3)c(F)cc3c(=O)c(C(=O)O)cn1c23.C[C@H]1COc2c(N3CCN(C)CC3)c(F)cc3c(=O)c(C(=O)O)cn1c23.O [LEVOFLOXACIN] | 4 µg/mL |  |  |  |  | 4 µg/mL | 8 µg/mL |  |  | < 0.125 µg/mL |  |  |  |  |  |  |  | 

From ChEMBL document CHEMBL3632603, “Synthesis of biscoumarin and dihydropyran derivatives with promising antitumor and antibacterial activities” (Bioorg Med Chem Lett, 2015)
